# Data reported in patent publication US20140005163A1 (NOVARTIS AG, priority 2010, published 2014).
# Assays:
# Solubility at pH 6.8 = type: physicochemical; conditions: pH 6.8, aqueous buffer, thermodynamic from solid; read-out: solubility
# How it was run: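 Following the procedure of Zhou et al. (2007), compound solubility was determined at pH 6.8.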
# PI3K delta = target: T1, PI3K delta (Homo sapiens, UniProt O00329); assay: PI3K delta kinase assay (Kinase-Glo luminescence); type: biochemical
# T1 construct: for the full-length p110-d subunit are generated and fused by overlapping PCR; p85(iSH2) fusion partner (see partner chain) (N); His tag (C); made in house; host or cells: baculovirus; Tn5 (Trichoplusia ni) or TiniPro insect cells
# How it was run: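 Lipid kinase activity of a His-tagged p110δ full-length/p85 iSH2 fusion (10 nM) toward bovine liver phosphatidylinositol (10 μg/mL) at 1 μM ATP, pH 7.5, 60 min, room temperature. ATP consumption is quantified by luciferase-based luminescence. Four-parameter logistic fitting gives IC50.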
# [1] = tested on: PKB Ser473 phosphorylation in Rat1-myr-HA-p110 alpha cells; assay: Reverse protein array assay, PKB Ser473 phosphorylation in Rat1-myr-p110 alpha cells; type: cell-based; conditions: 0.5 h, pAkt Ser473, 30 minutes compound incubation, read-out: p-PKB IC50
# How it was run: (§1)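 After at least 20 h of culture, the p110 isoform-transfected Rat1 lines receive compound in an 8-step dilution series, keeping DMSO at 0.2%, for 30 minutes. Cells are then lysed and lysates arrayed on chips for fluorescence detection of Ser473-phosphorylated PKB.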
# [2] = tested on: PKB Ser473 phosphorylation in Rat1-myr-HA-p110 beta cells; assay: Reverse protein array assay, PKB Ser473 phosphorylation in Rat1-myr-p110 beta cells; type: cell-based; conditions: 0.5 h, pAkt Ser473, 30 minutes incubation, read-out: p-PKB IC50
# How it was run: as §1
# [3] = tested on: PKB Ser473 phosphorylation in Rat1-myr-HA-p110 delta cells; assay: Reverse protein array assay, PKB Ser473 phosphorylation in Rat1-myr-p110 delta cells; type: cell-based; conditions: read-out: p-PKB IC50
# How it was run: as §1
# T1 sequence (O00329 with tags, fused parts or gaps limits assumed): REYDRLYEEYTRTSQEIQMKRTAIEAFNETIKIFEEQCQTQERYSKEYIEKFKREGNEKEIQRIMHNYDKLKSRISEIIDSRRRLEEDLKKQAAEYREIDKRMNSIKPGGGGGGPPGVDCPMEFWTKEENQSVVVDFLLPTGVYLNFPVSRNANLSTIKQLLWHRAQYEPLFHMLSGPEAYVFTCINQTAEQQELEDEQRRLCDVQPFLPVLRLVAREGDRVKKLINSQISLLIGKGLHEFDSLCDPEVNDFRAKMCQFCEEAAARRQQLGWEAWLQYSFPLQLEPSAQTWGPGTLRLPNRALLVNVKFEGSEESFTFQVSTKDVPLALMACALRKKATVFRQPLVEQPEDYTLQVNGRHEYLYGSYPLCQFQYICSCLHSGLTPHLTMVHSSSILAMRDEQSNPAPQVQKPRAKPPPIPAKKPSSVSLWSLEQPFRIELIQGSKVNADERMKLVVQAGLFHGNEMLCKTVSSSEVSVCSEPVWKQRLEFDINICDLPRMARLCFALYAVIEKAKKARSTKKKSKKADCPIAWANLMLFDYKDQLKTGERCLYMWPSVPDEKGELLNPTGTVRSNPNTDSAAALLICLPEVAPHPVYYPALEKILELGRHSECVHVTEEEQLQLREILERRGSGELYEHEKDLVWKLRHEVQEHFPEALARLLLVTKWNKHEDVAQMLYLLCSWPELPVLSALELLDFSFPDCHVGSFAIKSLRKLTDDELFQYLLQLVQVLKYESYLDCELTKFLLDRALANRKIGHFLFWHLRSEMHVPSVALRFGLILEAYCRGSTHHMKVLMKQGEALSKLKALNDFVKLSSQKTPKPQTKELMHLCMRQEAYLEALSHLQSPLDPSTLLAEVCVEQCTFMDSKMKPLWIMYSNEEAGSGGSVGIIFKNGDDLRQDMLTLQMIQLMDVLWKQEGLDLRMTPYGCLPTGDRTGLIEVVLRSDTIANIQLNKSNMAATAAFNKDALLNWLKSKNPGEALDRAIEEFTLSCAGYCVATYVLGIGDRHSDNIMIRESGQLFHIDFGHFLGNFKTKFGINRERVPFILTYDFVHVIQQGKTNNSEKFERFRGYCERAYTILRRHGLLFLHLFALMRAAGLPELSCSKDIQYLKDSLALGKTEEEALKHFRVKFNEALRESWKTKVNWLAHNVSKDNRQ
Compound,solubility (Solubility at pH 6.8) [µg/mL],IC50 (PI3K delta) [nM],IC50 [1] [nM],IC50 [2] [nM],IC50 [3] [nM]
"CCn1cc(-n2c(=O)n(C)c3cnc4ccc(-c5cncc(N)c5)cc4c32)c(C)n1 [Example 45.2, 8-(5-Amino-pyridin-3-yl)-1-(1-ethyl-3-methyl-1H-pyrazol-4-yl)-3-methyl-1,3-dihydro-imidazo[4,5-c]quinolin-2-one]",10,4,26,36,203
"Cc1nn(C(C)C)cc1-n1c(=O)n(C)c2cnc3ccc(-c4cncc(N)c4)cc3c21 [Example 45.3, 8-(5-Amino-pyridin-3-yl)-1-(1-isopropyl-3-methyl-1H-pyrazol-4-yl)-3-methyl-1,3-dihydro-imidazo[4,5-c]quinolin-2-one]",4,10,14,36,213
"Cc1nn(C)cc1-n1c(=O)n(C)c2cnc3ccc(-c4ccc(-n5cccn5)cc4)cc3c21 [Example 51.1, 1-(1,3-Dimethyl-1H-pyrazol-4-yl)-3-methyl-8-(4-pyrazol-1-yl-phenyl)-1,3-dihydro-imidazo[4,5-c]quinolin-2-one]",5,118,< 5,< 5,29
"CCOc1cncc(-c2ccc3ncc4c(c3c2)n(-c2cn(CC(=O)N(C)C)nc2C)c(=O)n4C)c1 [Example 56.2, 2-{4-[8-(5-Ethoxy-pyridin-3-yl)-3-methyl-2-oxo-2,3-dihydro-imidazo[4,5-c]quinolin-1-yl]-3-methyl-pyrazol-1-yl}-N,N-dimethyl-acetamide]",> 486,121,303,409,468
"Cc1cnn(C)c1-n1c(=O)n(C)c2cnc3ccc(-c4cncc(OC(C)C)c4)cc3c21 [Example 58.3, 1-(2,4-Dimethyl-2H-pyrazol-3-yl)-8-(5-isopropoxy-pyridin-3-yl)-3-methyl-1,3-dihydro-imidazo[4,5-c]quinolin-2-one]",6,118,383,281,577
"COCCOc1cncc(-c2ccc3ncc4c(c3c2)n(-c2cn(C)nc2Cl)c(=O)n4C)c1 [Example 59.2, 1-(3-Chloro-1-methyl-1H-pyrazol-4-yl)-8-[5-(2-methoxy-ethoxy)-pyridin-3-yl]-3-methyl-1,3-dihydro-imidazo[4,5-c]quinolin-2-one]",6,9,12,61,69
"CCOc1ncc(-c2ccc3ncc4c(c3c2)n(-c2cn(C)nc2C)c(=O)n4C)cc1N(C)C(C)=O [Example 63, N-{5-[1-(1,3-Dimethyl-1H-pyrazol-4-yl)-3-methyl-2-oxo-2,3-dihydro-1H-imidazo[4,5-c]quinolin-8-yl]-2-ethoxy-pyridin-3-yl}-N-methyl-acetamide]",> 486,20,265,744,356
"CCOc1ncc(-c2ccc3ncc4c(c3c2)n(-c2cn(C)nc2C)c(=O)n4C)cc1NC(C)=O [Example 65, N-{5-[1-(1,3-Dimethyl-1H-pyrazol-4-yl)-3-methyl-2-oxo-2,3-dihydro-1H-imidazo[4,5-c]quinolin-8-yl]-2-ethoxy-pyridin-3-yl}-acetamide]",31,175,47,43,102
"Cc1ncc(-c2ccc3ncc4c(c3c2)n(-c2cn(C)nc2C)c(=O)n4C)cc1NS(C)(=O)=O [Example 76, N-{5-[1-(1,3-Dimethyl-1H-pyrazol-4-yl)-3-methyl-2-oxo-2,3-dihydro-1H-imidazo[4,5-c]quinolin-8-yl]-2-methyl-pyridin-3-yl}-methanesulfonamide]",13,3,180,356,390
"CCOc1cc(-c2ccc3ncc4c(c3c2)n(-c2c(C)nn(CC(=O)N(C)C)c2C)c(=O)n4C)cnc1C [Example 85.3, 2-{4-[8-(5-Ethoxy-6-methyl-pyridin-3-yl)-3-methyl-2-oxo-2,3-dihydro-imidazo[4,5-c]quinolin-1-yl]-3,5-dimethyl-pyrazol-1-yl}-N,N-dimethyl-acetamide]",76,46,296,766,749
"CCNc1cc(-c2ccc3ncc4c(c3c2)n(-c2cn(C)nc2Cl)c(=O)n4C)cnc1C [Example 87.2, 1-(3-Chloro-1-methyl-1H-pyrazol-4-yl)-8-(5-ethylamino-6-methyl-pyridin-3-yl)-3-methyl-1,3-dihydro-imidazo[4,5-c]quinolin-2-one]",222,19,< 5,< 5,< 5
"CCNc1cc(-c2ccc3ncc4c(c3c2)n(-c2cn(CC)nc2C)c(=O)n4C)cnc1C [Example 87.3, 8-(5-Ethylamino-6-methyl-pyridin-3-yl)-1-(1-ethyl-3-methyl-1H-pyrazol-4-yl)-3-methyl-1,3-dihydro-imidazo[4,5-c]quinolin-2-one]",> 442,6,< 5,< 5,7
"COc1ncc(-c2ccc3ncc4c(c3c2)n(-c2cn(C)nc2Cl)c(=O)n4C)cc1N [Example 89, 8-(5-Amino-6-methoxy-pyridin-3-yl)-1-(3-chloro-1-methyl-1H-pyrazol-4-yl)-3-methyl-1,3-dihydro-imidazo[4,5-c]quinolin-2-one]",3,9,< 5,< 5,7
"CCN(C)c1ccc(-c2ccc3ncc4c(c3c2)n(-c2cn(C)nc2C)c(=O)n4C)cn1 [Example 98.1, 1-(1,3-Dimethyl-1H-pyrazol-4-yl)-8-[6-(ethyl-methyl-amino)-pyridin-3-yl]-3-methyl-1,3-dihydro-imidazo[4,5-c]quinolin-2-one]",8,48,< 5,13,42
"COC(=O)c1ccc(-c2ccc3ncc4c(c3c2)n(-c2cn(C)nc2C)c(=O)n4C)cn1 [Example 100, 5-[1-(1,3-Dimethyl-1H-pyrazol-4-yl)-3-methyl-2-oxo-2,3-dihydro-1H-imidazo[4,5-c]quinolin-8-yl]-pyridine-2-carboxylic acid methyl ester]",12,94,12,14,43
"COCc1ccc(-c2ccc3ncc4c(c3c2)n(-c2cn(C(C)C)nc2C)c(=O)n4C)cn1 [Example 105, 1-(1-Isopropyl-3-methyl-1H-pyrazol-4-yl)-8-(6-methoxymethyl-pyridin-3-yl)-3-methyl-1,3-dihydro-imidazo[4,5-c]quinolin-2-one]",> 443,52,77,41,162
"Cc1nn(C)cc1-n1c(=O)n(C)c2cnc3ccc(-c4ccc(OCCCO)nc4)cc3c21 [Example 108, 1-(1,3-Dimethyl-1H-pyrazol-4-yl)-8-[6-(3-hydroxy-propoxy)-pyridin-3-yl]-3-methyl-1,3-dihydro-imidazo[4,5-c]quinolin-2-one]",32,556,134,128,401
"COc1ccc(-c2ccc3ncc4[nH]c(=O)n(-c5cn(C)nc5C)c4c3c2)cn1 [Example 109, 1-(1,3-Dimethyl-1H-pyrazol-4-yl)-8-(6-methoxy-pyridin-3-yl)-1,3-dihydro-imidazo[4,5-c]quinolin-2-one]",3,19,55,89,120
"Cc1nn(C)cc1-n1c(=O)n(C)c2cnc3ccc(-c4cnc5c(ccn5C)c4)cc3c21 [Example 116, 1-(1,3-Dimethyl-1H-pyrazol-4-yl)-3-methyl-8-(1-methyl-1H-pyrrolo[2,3-b]pyridin-5-yl)-1,3-dihydro-imidazo[4,5-c]quinolin-2-one]",3,16,< 5,18,34
"CNC(=O)c1cc(-c2ccc3ncc4c(c3c2)n(-c2cn(C)nc2C)c(=O)n4C)cnc1OC [Example 125.1, 5-[1-(1,3-Dimethyl-1H-pyrazol-4-yl)-3-methyl-2-oxo-2,3-dihydro-1H-imidazo[4,5-c]quinolin-8-yl]-2-methoxy-N-methyl-nicotinamide]",6,26,75,98,91
"Cc1nn(C)cc1-n1c(=O)n(C)c2cnc3ccc(-c4ccc(N5CCNCC5)nc4)cc3c21 [Example 126, 1-(1,3-Dimethyl-1H-pyrazol-4-yl)-3-methyl-8-(6-piperazin-1-yl-pyridin-3-yl)-1,3-dihydro-imidazo[4,5-c]quinolin-2-one]",> 455,102,141,265,266
